Data taken from DBAASP.
In brackets after ≈: the same amount, converted by molar mass. Several values for one entry are separate records, joined by “and”; a condition that tells them apart may be missing. Equal entries are not always repeated.

Assays:
Assay in all cases: ≥ marks a high value that may be exact or a test limit, other limits are often not marked, values filed in µg/mL are converted to µM
[1] = test system: Escherichia coli ATCC 25922
[2] = test system: Bacillus subtilis KCTC 1998
[3] = test system: Staphylococcus epidermidis KCTC 3096
[4] = test system: Aspergillus awamori KCTC 6915
[5] = test system: Pseudomonas aeruginosa KCTC 1637
[6] = test system: Pseudomonas aeruginosa ATCC 15692
[7] = test system: Bacillus subtilis KCTC 1918
[8] = test system: Staphylococcus aureus ATCC 25923
[9] = test system: Aspergillus fumigatus KCTC 6145
[10] = test system: Trichosporon beigelii KCTC 7707
[11] = test system: Aspergillus flavus KCTC 6905
[12] = test system: Aspergillus parasiticus KCTC 6598
[13] = test system: Listeria monocytogenes ATCC 19115
[14] = test system: Listeria monocytogenes KCTC 3710
[15] = test system: Staphylococcus epidermidis ATCC 12228
[16] = test system: Candida albicans KCTC 7270
[17] = test system: Proteus vulgaris KCTC 2433
[18] = test system: Salmonella typhimurium KCTC 1926
Escherichia coli KF130 = test system: Escherichia coli KF130
[19] = test system: Pseudomonas aeruginosa H744
Escherichia coli KF111 = test system: Escherichia coli KF111
[20] = test system: Pseudomonas aeruginosa H374
[21] = test system: Salmonella enterica subsp. enterica serovar Typhimurium ATCC 14028s
[22] = test system: Pseudomonas aeruginosa K799
Escherichia coli UB1005 = test system: Escherichia coli UB1005
[23] = test system: Staphylococcus epidermidis
[24] = test system: Staphylococcus aureus USA 300
[25] = test system: Staphylococcus epidermidis ATCC 35984
Escherichia coli 170 = test system: Escherichia coli 170
Acinetobacter baumannii = test system: Acinetobacter baumannii
[26] = test system: Klebsiella pneumoniae 913
[27] = test system: Pseudomonas aeruginosa 4677
[28] = test system: Enterobacter cloacae 2524
[29] = test system: Pseudomonas aeruginosa ATCC 27853
[30] = test system: Staphylococcus aureus ATCC 33591
[31] = test system: Staphylococcus aureus TK784
[32] = test system: Salmonella enterica subsp. enterica serovar Typhimurium ATCC 14028
[33] = test system: Klebsiella pneumoniae ATCC 10031
[34] = test system: Shigella dysenteriae ATCC 9752
[35] = test system: Candida albicans ATCC 64550
[36] = test system: Micrococcus luteus ATCC 10240
[37] = test system: Bacillus subtilis ATCC 6633
[38] = test system: Staphylococcus aureus ATCC 6538P

## CC[C@H](C)[C@H](NC(=O)[C@H](CCCCN)NC(=O)[C@H](CCCCN)NC(=O)[C@H](C)NC(=O)[C@H](CC(C)C)NC(=O)[C@H](CCCCN)NC(=O)[C@H](CCCCN)NC(=O)[C@H](CC(C)C)NC(=O)[C@H](CCCN=C(N)N)NC(=O)[C@H](CCCCN)NC(=O)[C@H](C)N)C(=O)N[C@@H](Cc1c[nH]c2ccccc12)C(=O)N[C@@H](CC(N)=O)C(=O)N[C@@H](Cc1c[nH]c2ccccc12)C(=O)N[C@@H](CCCCN)C(N)=O [AKRLKKLAKKIWNWK]
[1]
  MIC: 22.6 µM (≈ 43.2 µg/mL)
[2]
  MIC: 4 µM (≈ 7.64 µg/mL)
[3]
  MIC: 16 µM (≈ 30.6 µg/mL)
[4]
  MIC: 16 µM (≈ 30.6 µg/mL)
[5]
  MIC: 2 µM (≈ 3.82 µg/mL)
[6]
  MIC: 2 µM (≈ 3.82 µg/mL)
[7]
  MIC: 4 µM (≈ 7.64 µg/mL)
[8]
  MIC: 5.66 µM and 16 µM
[9]
  MIC: 4 µM (≈ 7.64 µg/mL)
[10]
  MIC: ≥ 32 µM
[11]
  MIC: ≥ 32 µM
[12]
  MIC: 8 µM (≈ 15.3 µg/mL)
[13]
  MIC: 2 µM (≈ 3.82 µg/mL)
[14]
  MIC: 2 µM (≈ 3.82 µg/mL)
[15]
  MIC: 16 µM (≈ 30.6 µg/mL)
[16]
  MIC: 16 µM (≈ 30.6 µg/mL)
[17]
  MIC: 4 µM (≈ 7.64 µg/mL)
[18]
  MIC: 2 µM (≈ 3.82 µg/mL)

## CC[C@H](C)[C@H](NC(=O)[C@@H]1CCCN1C(=O)[C@H](CCCCN)NC(=O)[C@H](CC(C)C)NC(=O)[C@H](C)NC(=O)[C@@H](NC(=O)[C@H](Cc1ccc(O)cc1)NC(=O)[C@H](Cc1ccccc1)NC(=O)[C@@H](NC(=O)[C@@H](NC(=O)[C@H](CCCCN)NC(=O)[C@@H](NC(=O)[C@@H]1CCCN1C(=O)[C@H](CO)NC(=O)[C@H](CCCCN)NC(=O)[C@H](CC(C)C)NC(=O)[C@@H](NC(=O)[C@H](CCCCN)NC(=O)[C@H](CC(C)C)NC(=O)[C@H](Cc1ccccc1)NC(=O)[C@H](CO)NC(=O)[C@H](CCCCN)NC(=O)[C@H](Cc1c[nH]c2ccccc12)NC(=O)[C@@H](N)CCCCN)[C@@H](C)O)C(C)C)[C@@H](C)O)C(C)C)[C@@H](C)O)C(=O)N[C@@H](CO)C(=O)N[C@@H](CO)C(=O)O [KWKSFLKTLKSPVKTVFYTALKPISS]
Escherichia coli KF130
  MIC: 0.667 µM (≈ 2 µg/mL)
[19]
  MIC: 5.34 µM (≈ 16 µg/mL)
Escherichia coli KF111
  MIC: 0.667 µM (≈ 2 µg/mL)
[20]
  MIC: 5.34 µM (≈ 16 µg/mL)
[21]
  MIC: 5.34 µM (≈ 16 µg/mL)
[22]
  MIC: 5.34 µM (≈ 16 µg/mL)
Escherichia coli UB1005
  MIC: 0.667 µM (≈ 2 µg/mL)
[23]
  MIC: 10.7 µM (≈ 32 µg/mL)

## CC[C@H](C)[C@H](NC(=O)CN)C(=O)N[C@H](C(=O)N[C@@H](CCCCN)C(=O)N[C@H](C(=O)N[C@H](C(=O)N[C@@H](CCCCN)C(=O)N[C@@H](CO)C(=O)N[C@@H](CC(C)C)C(=O)N[C@H](C(=O)N[C@@H](CCC(=O)O)C(=O)N[C@@H](CCC(N)=O)C(=O)N[C@@H](Cc1ccccc1)C(=O)N[C@H](C(=O)NCC(=O)N[C@@H](CCCCN)C(=O)O)[C@@H](C)O)[C@@H](C)CC)[C@@H](C)CC)C(C)C)[C@@H](C)CC [GIIKVIKSLIEQFTGK]
[24]
  MIC: ≥ 64 µM
[25]
  MIC: ≥ 42 µM

## CC[C@H](C)[C@H](N)C(=O)N[C@@H](C)C(=O)N[C@@H](CO)C(=O)N[C@@H](CCCCN)C(=O)N[C@H](C(=O)N[C@@H](C)C(=O)N[C@@H](CC(N)=O)C(=O)N[C@H](C(=O)N[C@H](C(=O)N[C@@H](CCC(N)=O)C(=O)N[C@@H](CCCCN)C(=O)N[C@@H](CC(C)C)C(=O)N[C@@H](CCCCN)C(=O)N[C@@H](CCCN=C(N)N)C(=O)N[C@@H](CCCCN)C(=O)N[C@@H](C)C(=O)N[C@@H](CCCCN)C(=O)N[C@@H](CC(N)=O)C(=O)N[C@@H](C)C(=O)N[C@H](C(=O)O)C(C)C)C(C)C)[C@@H](C)O)C(C)C [IASKVANTVQKLKRKAKNAV]
Escherichia coli 170
  MIC: ≥ 50 µM
[1]
  MIC: 25 µM (≈ 54.2 µg/mL)
Acinetobacter baumannii
  MIC: ≥ 50 µM
[26]
  MIC: ≥ 50 µM
[27]
  MIC: ≥ 50 µM
[28]
  MIC: ≥ 50 µM

## CC[C@H](C)[C@H](NC(=O)[C@H](CCCCN)NC(=O)[C@@H](NC(=O)[C@H](Cc1ccccc1)NC(=O)[C@H](C)NC(=O)[C@H](CCCCN)NC(=O)CNC(=O)[C@H](Cc1ccccc1)NC(=O)[C@H](CCCCN)NC(=O)[C@H](CCCCN)NC(=O)[C@H](C)NC(=O)[C@H](CCCCN)NC(=O)[C@H](CCCCN)NC(=O)[C@@H](N)CC(C)C)C(C)C)C(=O)N[C@@H](CC(C)C)C(=O)N[C@@H](CCCCN)C(=O)N[C@@H](CCCCN)C(N)=O [LKKAKKFGKAFVKILKK]
[29]
  MIC: 1.43 µM (≈ 2.83 µg/mL)
[8]
  MIC: > 259 µM
[30]
  MIC: ≥ 259 µM
[25]
  MIC: 8.1 µM (≈ 16 µg/mL)

## CC(C)C[C@H](NC(=O)[C@H](Cc1c[nH]c2ccccc12)NC(=O)[C@H](CCCCN)NC(=O)[C@H](CC(C)C)NC(=O)[C@H](CC(C)C)NC(=O)[C@H](Cc1c[nH]c2ccccc12)NC(=O)[C@H](CCCCN)NC(=O)[C@H](CC(C)C)NC(=O)[C@@H](N)CC(C)C)C(=O)N[C@@H](CCCCN)C(=O)N[C@@H](CCCCN)C(N)=O [LLKWLLKWLKK]
[1]
  MIC: 6.81 µM (≈ 9.99 µg/mL)
[31]
  MIC: 3.4 µM (≈ 5 µg/mL)
[32]
  MIC: 27.2 µM (≈ 40 µg/mL)
[29]
  MIC: 6.81 µM (≈ 9.99 µg/mL)
[33]
  MIC: 13.6 µM (≈ 20 µg/mL)
[34]
  MIC: 6.81 µM (≈ 9.99 µg/mL)
[35]
  MIC: ≥ 100 µM
[36]
  MIC: 0.885 µM (≈ 1.3 µg/mL)
[37]
  MIC: 0.885 µM (≈ 1.3 µg/mL)
[15]
  MIC: 0.885 µM (≈ 1.3 µg/mL)
[38]
  MIC: 0.885 µM (≈ 1.3 µg/mL)

## CC[C@H](C)[C@H](NC(=O)[C@@H]1CCCN1C(=O)[C@H](CCCCN)NC(=O)[C@H](CC(C)C)NC(=O)[C@H](C)NC(=O)[C@@H](NC(=O)[C@H](Cc1cnc[nH]1)NC(=O)[C@H](CC(C)C)NC(=O)[C@@H](NC(=O)[C@@H](NC(=O)[C@H](CCCN=C(N)N)NC(=O)[C@H](C)NC(=O)[C@@H]1CCCN1C(=O)[C@H](CO)NC(=O)[C@H](CCCCN)NC(=O)[C@H](Cc1ccccc1)NC(=O)[C@@H](NC(=O)[C@H](CCCCN)NC(=O)[C@H](CC(C)C)NC(=O)[C@H](Cc1ccccc1)NC(=O)[C@H](CO)NC(=O)[C@H](CCCCN)NC(=O)[C@H](Cc1c[nH]c2ccccc12)NC(=O)[C@@H](N)CCCCN)[C@@H](C)O)[C@@H](C)O)C(C)C)[C@@H](C)O)C(=O)N[C@@H](CO)C(=O)N[C@@H](CO)C(=O)O [KWKSFLKTFKSPARTVLHTALKPISS]
Escherichia coli KF130
  MIC: 2.69 µM (≈ 8 µg/mL)
[19]
  MIC: 10.8 µM (≈ 32 µg/mL)
Escherichia coli KF111
  MIC: 1.35 µM (≈ 4 µg/mL)
[29]
  MIC: 4 µM (≈ 11.9 µg/mL)
[20]
  MIC: 10.8 µM (≈ 32 µg/mL)
[21]
  MIC: 10.8 µM (≈ 32 µg/mL)
[22]
  MIC: 10.8 µM (≈ 32 µg/mL)
Escherichia coli UB1005
  MIC: 1.35 µM (≈ 4 µg/mL)
[23]
  MIC: 21.5 µM (≈ 64 µg/mL)
